Data set [1] deals with human mGluR5 (Homo sapiens, UniProt P41594). Briefly: Cell-based functional Ca2+ mobilization assay (FDSS), potentiation of glutamate EC20 response. The conditions noted are these: H10H cell-line (HEK, recombinant human mGluR5); for Emax: glutamate EC20, maximum average response at a single concentration, percent of maximal glutamate response; for EC50: positive allosteric modulation in presence of glutamate EC20, concentration in mol/L. The text has this:
Human mGluR5a cDNA in pCMV6-XL6 mammalian expression plasmid was purchased from OriGene Technologies, Inc. (catalogue number SC326357) and subcloned into pcDNA3.1(−). Human embryonic kidney (HEK) 293A cells were then transfected with human mGluR5a pcDNA3.1(−) using LipofectAmine2000 (Invitrogen) and monoclones were selected and tested for functional response using a Ca^2+ mobilization assay. Monoclones were named for the species (“H” for human) plus the location on the plate (e.g. “10H”).
HEK cells transfected with the human mGluR5a receptor (H10H or H12H cell line) were plated at 15,000 cells/well in clear-bottomed poly-D-lysine-coated assay plates (BD Falcon) in glutamate-glutamine-free growth medium and incubated overnight at 37° C. and 5% CO2. Cell-lines used were either the H10H or H12H cell-lines expressing the human mGluR5 receptor. The following day, the growth medium was removed and the cells were washed with assay buffer containing 1× Hank's balanced salt solution (Invitrogen, Carlsbad, Calif.), 20 mM HEPES, 2.5 mM probenecid, pH 7.4 and left with 20 μL of this reagent. Following this step, the cells were loaded with calcium indicator dye, fluo-4 AM, to a final concentration of 2 μM and incubated for 40-45 min at 37° C. The dye solution was removed and replaced with assay buffer. Cell plates were held for 10-15 min at room temperature and were then loaded into the Functional Drug Screening System 6000 (FDSS 6000, Hamamatsu, Japan).
After establishment of a fluorescence baseline for about 3 seconds, the compounds of the present invention were added to the cells, and the response in cells was measured. 2.3 minutes later an EC20 concentration of the mGluR5 receptor agonist glutamate was added to the cells, and the response of the cells was measured for about 1.7 minutes. All test compounds were dissolved and diluted to a concentration of 10 mM in 100% DMSO and then serially diluted into assay buffer for a 2× stock solution in 0.6% DMSO; stock compounds were then added to the assay for a final DMSO concentration of 0.3% after the first addition to the assay well. Calcium fluorescence measures were recorded as fold over basal fluorescence; raw data was then normalized to the maximal response to glutamate. Potentiation of the agonist response of the mGluR5 receptor in the present invention was observed as an increase in response to submaximal concentrations of glutamate in the presence of compound compared to the response to glutamate in the absence of compound.
The concentration-response curves of compounds of the present invention, obtained in the presence of EC20 of mGluR5 receptor agonist glutamate to determine positive allosteric modulation, were generated using Microsoft Excel with IDBS XLFit add-ins. The raw data file containing all time points was used as the data source in the analysis template. This was saved by the FDSS as a tab-delimited text file. Data were normalized using a static ratio function (F/F0) for each measurement of the total 350 values per well divided by each well's initial value. Data was then reduced as to peak amplitudes (Max-Initial Min) using a time range that starts approximately 1 second after the glutamate EC20 addition and continues for approximately 40 seconds. This is sufficient time to capture the peak amplitude of the cellular Calcium response. Individual amplitudes were expressed as % EMax by multiplying each amplitude by 100 and then dividing the product by the mean of the amplitudes derived from the glutamate ECMax-treated wells. pEC50 values for test compounds were generated by fitting the normalized values versus the log of the test compound concentration (in mol/L) using a 4 parameter logistic equation where none of the parameters were fixed. Each of the three values collected at each concentration of test compound were weighted evenly. Individual values falling outside the 95% prediction limits of the curve fit were automatically excluded from the fit. […]
On the technique in general: Calcium assays in cells follow changes in intracellular calcium, usually with a dye or a luminescent sensor.

Structures are written as SMILES.

Sequence of human mGluR5 (P41594 21-1180 isoform P41594-2 limits assumed): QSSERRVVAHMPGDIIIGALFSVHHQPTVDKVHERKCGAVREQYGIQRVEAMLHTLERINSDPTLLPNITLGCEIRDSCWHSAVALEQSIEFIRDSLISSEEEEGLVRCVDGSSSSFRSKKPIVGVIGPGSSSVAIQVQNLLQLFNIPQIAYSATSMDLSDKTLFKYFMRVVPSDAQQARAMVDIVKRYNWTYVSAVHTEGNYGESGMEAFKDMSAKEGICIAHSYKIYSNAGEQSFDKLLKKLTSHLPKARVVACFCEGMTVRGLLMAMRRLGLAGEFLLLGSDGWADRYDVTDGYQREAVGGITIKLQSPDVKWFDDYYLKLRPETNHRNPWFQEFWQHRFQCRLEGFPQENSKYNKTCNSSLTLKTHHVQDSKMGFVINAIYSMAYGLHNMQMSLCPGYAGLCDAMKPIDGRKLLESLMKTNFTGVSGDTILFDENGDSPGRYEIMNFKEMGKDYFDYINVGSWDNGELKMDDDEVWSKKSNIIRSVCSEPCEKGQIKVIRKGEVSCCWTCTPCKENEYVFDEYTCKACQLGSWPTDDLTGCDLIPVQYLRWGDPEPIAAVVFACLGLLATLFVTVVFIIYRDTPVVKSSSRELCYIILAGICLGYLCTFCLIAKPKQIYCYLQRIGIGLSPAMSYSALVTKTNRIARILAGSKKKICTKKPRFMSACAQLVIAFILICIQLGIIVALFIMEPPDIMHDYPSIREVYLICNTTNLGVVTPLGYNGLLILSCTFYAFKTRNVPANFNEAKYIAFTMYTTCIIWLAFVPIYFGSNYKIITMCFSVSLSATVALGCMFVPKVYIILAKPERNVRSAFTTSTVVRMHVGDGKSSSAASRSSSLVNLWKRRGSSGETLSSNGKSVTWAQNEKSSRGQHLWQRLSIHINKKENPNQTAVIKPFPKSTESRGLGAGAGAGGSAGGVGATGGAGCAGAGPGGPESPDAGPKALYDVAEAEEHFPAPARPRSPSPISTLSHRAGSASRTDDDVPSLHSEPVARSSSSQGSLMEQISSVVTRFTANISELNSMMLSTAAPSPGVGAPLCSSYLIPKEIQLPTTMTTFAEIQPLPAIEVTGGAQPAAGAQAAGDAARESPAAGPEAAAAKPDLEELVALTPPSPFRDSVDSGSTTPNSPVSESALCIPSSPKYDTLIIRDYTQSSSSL

In general, melting point refers to the temperature of the solid-liquid transition. For orientation: Emax means the size of the effect at its maximum, as opposed to the concentration needed. One may read the EC50 as the concentration that produces a half-maximal response. In the case of `O=C1c2cc(COc3ccccc3)nn2CCN1Cc1ccc(F)c(F)c1` [Example B21], the melting point is 133.2 °C. Further, in data set [1], the maximum response (Emax) is 68% and the half-maximal effective concentration (EC50) is 77.6 nM.

For the molecule `O=C1c2cc(COc3ccccc3)nn2CCN1Cc1ccc(F)cc1F` [Example B22], the melting point was 129.8 °C. In data set [1], the maximal effect (Emax) was 69% and the 50% effective concentration (EC50) is 61.7 nM.

On to `O=C1c2cc(COc3ccccc3)nn2CCN1Cc1cccc(F)c1F` [Example B23], for which the melting point was 122.8 °C. Also, in data set [1], the Emax worked out at 72.5% and the 50% effective concentration (EC50) was 31.6 nM.

`O=C1c2cc(COc3ccccc3)nn2CCN1Cc1cc(F)ccc1F` [Example B24] came in with a melting point of 113.6 °C. In data set [1], the maximal effect (Emax) was 71% and the EC50 is 120 nM.

In the case of `COc1ccc(CN2CCn3nc(COc4cccc(C)n4)cc3C2=O)cc1` [Example B29], the melting point was found to be 91.2 °C. Besides, in data set [1], the Emax came out at 37% and the concentration giving a half-maximal response (EC50) is more than 10000 nM.

Take `COc1ccc(CN2CCn3nc(COc4cc(C)ccn4)cc3C2=O)cc1` [Example B30]: the melting point is more than 300 °C. For the same molecule, in data set [1], the Emax worked out at 61% and the EC50 was more than 10000 nM.

As for `COc1ccc(CN2CCn3nc(COc4ccnc(C)c4)cc3C2=O)cc1` [Example B33], the melting point worked out at 117.1 °C. Besides, in data set [1], the Emax was found to be 30% and the concentration giving a half-maximal response (EC50) is more than 10000 nM.

In the case of `COc1ccc(CN2CCn3nc(COc4cc(C)nc(C)c4)cc3C2=O)cc1` [Example B35], the melting point stood at 164.8 °C. Also, in data set [1], the maximum response (Emax) was found to be 17% and the concentration giving a half-maximal response (EC50) was more than 31600 nM.

As to `COc1cccc(CN2CCn3nc(COc4ccccc4)cc3C2=O)c1` [Example B36], the melting point was determined as 82.5 °C. Further, in data set [1], the maximum response (Emax) turned out to be 65% and the concentration giving a half-maximal response (EC50) is 107 nM.

In the case of `CC1(C)CN(Cc2ccccc2)C(=O)c2cc(COc3ccccc3)nn21` [Example B45], the melting point amounted to 112.6 °C. For the same molecule, in data set [1], the Emax came to 66% and the EC50 was 178 nM.

For `O=C1c2cc(COc3ccccc3)nn2CCN1Cc1ccccc1Cl` [Example B46], the melting point stood at 111.2 °C. Also, in data set [1], the maximal effect (Emax) was 75% and the EC50 is 26.3 nM.

In turn, `O=C1c2cc(COc3ccccc3)nn2CCN1Cc1cccc(Cl)c1` [Example B47] yielded a melting point of 218 °C. Also, in data set [1], the Emax amounted to 76% and the EC50 is 55 nM.

Molecule `O=C1c2cc(COc3ccccc3)nn2CCN1Cc1ccc(Cl)cc1` [Example B48] gave a melting point of 169 °C. In data set [1], the Emax was determined as 65% and the EC50 was 155 nM.

As to `Cc1ccnc(OCc2cc3n(n2)CCN(Cc2ccccc2)C3=O)c1` [Example B62], the melting point was 75.4 °C. For the same molecule, in data set [1], the maximum response (Emax) was 39% and the half-maximal effective concentration (EC50) is 759 nM.

With `Cc1ccccc1CN1CCn2nc(COc3ccccc3)cc2C1=O` [Example B63], the melting point amounted to 189.6 °C. In addition, in data set [1], the Emax was determined as 70% and the EC50 was 33.9 nM.

For `Cc1cccc(CN2CCn3nc(COc4ccccc4)cc3C2=O)c1` [Example B64], the melting point turned out to be 95.3 °C. For the same molecule, in data set [1], the Emax came out at 61% and the EC50 is 47.9 nM.

`Cc1ccc(CN2CCn3nc(COc4ccccc4)cc3C2=O)cc1` [Example B65]: the melting point amounted to 164.9 °C. For the same molecule, in data set [1], the maximum response (Emax) stood at 75% and the EC50 is 145 nM.

With `COc1cc(CN2CCn3nc(COc4ccccc4)cc3C2=O)ccc1F` [Example B66], the melting point is 132.1 °C. In addition, in data set [1], the Emax came to 64% and the EC50 is 204 nM.

`COc1cccc(F)c1CN1CCn2nc(COc3ccccc3)cc2C1=O` [Example B67] had a melting point of 87.6 °C. Besides, in data set [1], the Emax was 68% and the EC50 is 195 nM.

With `COc1c(Cl)cccc1CN1CCn2nc(COc3ccccc3)cc2C1=O` [Example B68], the melting point came to 116 °C. In data set [1], the Emax turned out to be 65.5% and the EC50 is 17.8 nM.

Take `O=C1c2cc(COc3ccccc3F)nn2CCN1Cc1ccccc1` [Example B69]: the melting point came to 104.2 °C. Also, in data set [1], the Emax was determined as 69% and the EC50 was 209 nM.

Take `COc1cncc(CN2CCn3nc(COc4ccccc4)cc3C2=O)n1` [Example B71]: the melting point was determined as 96 °C. In addition, in data set [1], the Emax was found to be 73% and the EC50 was 525 nM.

In turn, `N#Cc1cccc(CN2CCn3nc(COc4ccccc4)cc3C2=O)c1` [Example B72] registered a melting point of 117.4 °C. In data set [1], the Emax was found to be 81% and the EC50 is 229 nM.

The molecule `CN(C)c1cccc(CN2CCn3nc(COc4ccccc4)cc3C2=O)n1` [Example B74] returned a melting point of 71.8 °C. Also, in data set [1], the maximal effect (Emax) was found to be 69% and the concentration for a half-maximal effect (EC50) is 95.5 nM.

In turn, `COc1cccnc1CN1CCn2nc(COc3ccccc3)cc2C1=O` [Example B75] displayed a melting point of 132.4 °C. Also, in data set [1], the Emax stood at 71% and the EC50 is 1150 nM.

`Cc1cncc(CN2CCn3nc(COc4ccccc4)cc3C2=O)n1` [Example B77] showed a melting point of 120.4 °C. In data set [1], the maximal response (Emax) was found to be 66% and the EC50 was 2290 nM.

On to `Cc1nc(CN2CCn3nc(COc4ccccc4)cc3C2=O)ccc1F` [Example B78], for which the melting point worked out at 114.2 °C. Further, in data set [1], the Emax was 70% and the EC50 is 295 nM.

Take `Cc1cc(CN2CCn3nc(COc4ccccc4)cc3C2=O)ncc1F` [Example B82]: the melting point came out at 129.8 °C. For the same molecule, in data set [1], the maximal response (Emax) turned out to be 75.5% and the EC50 is 355 nM.

Turning to `O=C1c2cc(COc3ccccc3)nn2CCN1Cc1ncccc1F` [Example B83], the melting point came to 117.2 °C. Further, in data set [1], the Emax was 77% and the EC50 was 417 nM.

`Cc1nccc(CN2CCn3nc(COc4ccccc4)cc3C2=O)n1` [Example B84] came in with a melting point of more than 300 °C. Also, in data set [1], the Emax was 70% and the EC50 is 1740 nM.

With `Cc1cccc(CN2CCn3nc(COc4ccc(F)cc4)cc3C2=O)n1` [Example B85], the melting point turned out to be 147.4 °C. For the same molecule, in data set [1], the maximal response (Emax) was 69.5% and the half-maximal effective concentration (EC50) was 447 nM.

Regarding `Cc1cccc(CN2C(=O)c3cc(COc4ccccc4)nn3C[C@H]2C)n1` [Example B86], the melting point stood at 107.6 °C. In data set [1], the maximal response (Emax) amounted to 71.5% and the EC50 is 302 nM.

`C[C@@H]1Cn2nc(COc3ccccc3)cc2C(=O)N1Cc1ncccc1Cl` [Example B87] came in with a melting point of 166.4 °C. In data set [1], the Emax came out at 80% and the EC50 is 275 nM.

As for `O=C1c2cc(COc3ccc(F)cc3)nn2CCN1Cc1ncccc1Cl` [Example B88], the melting point was determined as 268.8 °C. Besides, in data set [1], the Emax was determined as 71% and the half-maximal effective concentration (EC50) is 93.3 nM.

`Cc1cc(CN2CCn3nc(COc4ccccc4)cc3C2=O)no1` [Example B89] had a melting point of 187.5 °C. Besides, in data set [1], the Emax came out at 66% and the EC50 is 955 nM.

`O=C1c2cc(COc3ccccc3)nn2CCN1Cc1nc2ccccc2s1` [Example B91] yielded a melting point of 105.8 °C. Also, in data set [1], the maximum response (Emax) amounted to 69% and the EC50 is 67.6 nM.

The values above are taken from US20130345205A1, “SUBSTITUTED BICYCLIC ARALKYL PYRAZOLE LACTAM ANALOGS AS ALLOSTERIC MODULATORS OF MGLUR5 RECEPTORS” (Vanderbilt University, priority 2012, published 2013).
